Data taken from patent US10851064B2, “ACSS2 inhibitors and methods of use thereof” (METABOMED LTD., priority 2017, dated 2020).
pIC50: −log10 of the molar value. Several values for one entry are separate records, joined by “and”; a condition that tells them apart may be missing. Equal entries are not always repeated.

Columns and labels:
ACSS2 [1] = target: T1, ACSS2 (Homo sapiens, UniProt Q9NR19); assay: biochemical
ACSS2 [2] = target: T1, ACSS2; assay: cell-based
Experimental: ACSS2 Cellular Activity Assay (Cellular IC50)
The cellular activity of ACSS2 was based on tracing the incorporation of carbons from ^13C-Acetate into fatty-acids.
BT474/MDA-MB-468 cells growing in DMEM+25 mM D-glucose+1 mM sodium pyruvate+10% FBS+2 mM glutamine were plated in 12-well plates at 0.4×10^6 cells/well. The cells were then incubated at CO2 incubator for 24 hrs at hypoxic conditions (1% O2) before treated with compounds. At day 2, the medium was replaced to DMEM medium containing 15 mM Glucose, 1 mM Pyruvate, 0.65 mM Glutamine, 1% Dialyzed serum, 3.5 ug/ml Biotin, 0.2 mM ^13C-Acetate and various concentrations of the compounds. The cells were incubated for 5 hours at CO2 incubator in hypoxic conditions (1% O2). At the end of the 5 hours' incubation, the cells were washed twice with cold PBS, harvested in 1 ml PBS and transfer into V-shaped HPLC glass vials and centrifuge for 10 min at 600 g at 4 C. The supernatant was removed, and the cells' pellets were stored at −80° C. until taken for saponification.
The cells pellets were resuspended with 0.5 ml of the 90% Methanol, 10% H2O, 0.3M NaOH mixture and incubated at 80° C. for 60 min. Following the incubation, 50 μl formic acid and 0.4 ml hexane were added and the mixture was vortexed for 2 minutes. The vials were left few minutes for phases separation and then 200 μl of the top hexane phase extracted to a new glass vial. The hexane was dried under nitrogen and reconstituted in 100 μl of Methanol:Acetonitrile 5:3 mixture. The solution transferred to Eppendorf tubes, spun down at 17000 G for 20 min and transferred to LC-MS vials.
The analysis was performed with Thermo Q Exactive mass spectrometer with HESI probe and Dionex Ultimate 3000 UHPLC system. The separations were performed on Phenomenex Kintex 2.6u XB-C18 100A 150×2.10 mm column by injecting 5 ul of each sample. The chromatography started with a linear gradient from 85% to 100% of organic solvent (Methanol:Acetonitrile 1:1) versus 10 mM Ammonium Acetate buffer pH 4.7 for 3.5 minutes, followed by 4.5 minutes of isocratic 100% organic solvent and then 3 minutes of isocratic initial conditions, at a flow rate of 0.3 ul/min. The MS source conditions that were used: capillary temperature 325° C., sheath flow 25, aux flow 15, spray voltage 3.8 kV, aux temperature 300° C. The data collected from Negative ion mode at resolution of 70000 at Full-MS mode in 75-1000 m/z range.
The analysis of ^13C acetate incorporation into fatty acids (palmitate, myristate and stearate) performed on TraceFinder 3.2.512.0. The negative control areas and ^13C isotopic theoretical natural abundance were subtracted from the samples areas. Total ^13C incorporation for each fatty-acid (palmitate, myristate and stearate) was calculated and presented as percentage of the total amount.

ACSS2 [3] = target: T1, ACSS2; assay: cell-based; remark: listed apart in the source
Experimental: Testing the inhibitory effect of compounds on the cellular activity of ACSS2 was done by tracing the incorporation of ^13C from ^13C-acetate into fatty-acids in MDA-MB-468 cells under hypoxic conditions of 1% 02. The assay was done for 5 hours in DMEM with 5.5 mM glucose, 1 mM sodium Pyruvate, 0.65 mM Glutamine, 3.5 ug/ml Biotin, 1% dialyzed serum, 0.5 mM 13C-acetate and with different concentrations of the inhibitors. At the end of the incubation, the cells were washed with cold PBS, harvested into glass tubes and undergo saponification. The level of ^13C incorporation into Palmitate was done by LC-MS analysis and the level of inhibition was calculated with PRISM software.

T1 sequence (Q9NR19 whole entry): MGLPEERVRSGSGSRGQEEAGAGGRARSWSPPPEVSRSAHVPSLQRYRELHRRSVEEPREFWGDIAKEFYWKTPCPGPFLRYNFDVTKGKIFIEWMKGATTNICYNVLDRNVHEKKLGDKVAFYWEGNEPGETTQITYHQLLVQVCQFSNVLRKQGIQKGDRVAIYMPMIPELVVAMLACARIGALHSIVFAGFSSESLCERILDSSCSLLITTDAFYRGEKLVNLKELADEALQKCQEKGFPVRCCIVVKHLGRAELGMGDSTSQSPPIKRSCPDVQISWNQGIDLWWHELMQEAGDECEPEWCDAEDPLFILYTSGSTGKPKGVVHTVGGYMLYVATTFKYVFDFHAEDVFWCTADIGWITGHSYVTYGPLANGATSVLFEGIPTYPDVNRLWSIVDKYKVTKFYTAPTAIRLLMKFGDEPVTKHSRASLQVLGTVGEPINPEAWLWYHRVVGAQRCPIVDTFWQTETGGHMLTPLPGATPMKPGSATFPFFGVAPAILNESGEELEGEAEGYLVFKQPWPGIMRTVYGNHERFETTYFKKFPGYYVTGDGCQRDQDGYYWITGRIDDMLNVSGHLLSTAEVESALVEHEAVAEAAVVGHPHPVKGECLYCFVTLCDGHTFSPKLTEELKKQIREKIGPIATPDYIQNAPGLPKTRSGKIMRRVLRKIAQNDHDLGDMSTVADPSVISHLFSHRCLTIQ

SMILES | pIC50 (ACSS2 [1]) | pIC50 (ACSS2 [2]) | pIC50 (ACSS2 [3])
CCCC(=O)c1cccc(NC(=O)C2C(=O)N(c3ccccc3)N=C2C)c1 (stereo not shown) [compound 114, N-(3-butyrylphenyl)-3-methyl-5-oxo-1-phenyl-4,5-dihydro-1H-pyrazole-4-carboxamide] | 7.00 to 8.22 | ≤ 6.00 and 6.00 to 7.00 | –
CC1=NN(c2cccc(C(F)(F)F)c2)C(=O)C1C(=O)Nc1cccc(-c2ncc[nH]2)c1 (stereo not shown) [compound 149, N-(3-(1H-imidazol-2-yl)phenyl)-3-methyl-5-oxo-1-(3-(trifluoromethyl)phenyl)-4,5-dihydro-1H-pyrazole-4-carboxamide] | 7.00 to 8.22 | – | < 7.00
COC(=O)c1cccc(N2N=C(C)C(C(=O)Nc3cccc(-c4cnccn4)c3)C2=O)c1 (stereo not shown) [compound 164] | 8.22 to 11.00 | – | < 7.00
COC(=O)c1cccc(N2N=C(C)C(C(=O)Nc3cccc(-c4ncc[nH]4)c3)C2=O)c1 (stereo not shown) [compound 167] | 8.22 to 11.00 | – | < 7.00
CC(=O)c1cccc(NC(=O)C2C(=O)N(c3ccccc3)N=C2C)c1 (stereo not shown) [compound 183, N-(3-acetylphenyl)-3-methyl-5-oxo-1-phenyl-4,5-dihydro-1H yrazole-4-carboxamide] | 7.00 to 8.22 | ≤ 6.00 | –
CC1=NN(c2ccncc2)C(=O)C1C(=O)Nc1cccc(C(C)(F)F)c1 (stereo not shown) [compound 231] | 7.00 to 8.22 | – | < 7.00
CC1=NN(c2cccc(C(=O)OC(C)C)c2)C(=O)C1C(=O)Nc1cccc(-c2cnccn2)c1 (stereo not shown) [compound 234] | 8.22 to 11.00 | – | < 7.00
CC1=NN(c2cccc(C(=O)OC(C)C)c2)C(=O)C1C(=O)Nc1cccc(-c2ncc[nH]2)c1 (stereo not shown) [compound 235] | 7.00 to 8.22 | – | < 7.00
CC1=NN(c2cccc(C(=O)OC(C)C)c2)C(=O)C1C(=O)Nc1cccc(-c2ccco2)c1 (stereo not shown) [compound 237] | 7.00 to 8.22 | – | < 7.00
COc1ccc(N2N=C(C)C(C(=O)Nc3cccc(C(C)(F)F)c3)C2=O)cn1 (stereo not shown) [compound 242] | 8.22 to 11.00 | – | 7.30 to 9.30
COc1ccc(N2N=C(C)C(C(=O)Nc3cccc(-c4cnccn4)c3)C2=O)cn1 (stereo not shown) [compound 243] | 8.22 to 11.00 | – | < 7.00
COc1ccc(N2N=C(C)C(C(=O)Nc3cccc(-c4ccco4)c3)C2=O)cn1 (stereo not shown) [compound 246] | 8.22 to 11.00 | – | 7.30 to 9.30
COc1cccc(N2N=C(C)C(C(=O)Nc3cccc(-c4ncc[nH]4)c3)C2=O)c1 (stereo not shown) [compound 248] | 8.22 to 11.00 | – | < 7.00
COc1cccc(N2N=C(C)C(C(=O)Nc3cccc(C(C)(F)F)c3)C2=O)c1 (stereo not shown) [compound 250] | 8.22 to 11.00 | – | 7.30 to 9.30
COc1cccc(N2N=C(C)C(C(=O)Nc3cccc(-c4ncco4)c3)C2=O)c1 (stereo not shown) [compound 251] | 7.00 to 8.22 | – | 7.00 to 7.30
CC1=NN(c2cccc(S(=O)(=O)N(C)C)c2)C(=O)C1C(=O)Nc1cccc(C(C)(F)F)c1 (stereo not shown) [compound 252] | 8.22 to 11.00 | – | 7.00 to 7.30
CC1=NN(c2ccc(S(=O)(=O)N(C)C)cc2)C(=O)C1C(=O)Nc1cccc(C(C)(F)F)c1 (stereo not shown) [compound 253] | 8.22 to 11.00 | – | 7.30 to 9.30
CC1=NN(c2cccc(C(F)(F)F)c2)C(=O)C1C(=O)Nc1cccc(-c2ncco2)c1 (stereo not shown) [compound 257] | 7.00 to 8.22 | – | < 7.00
COC(=O)c1cccc(N2N=C(C)C(C(=O)Nc3cccc(C(C)(F)F)c3)C2=O)c1 (stereo not shown) [compound 261] | 8.22 to 11.00 | – | 7.30 to 9.30

SMILES | pIC50 (ACSS2 [1]) | pIC50 (ACSS2 [2]) | pIC50 (ACSS2 [3])
CC1=NN(c2cccc(S(=O)(=O)N(C)C)c2)C(=O)C1C(=O)Nc1cccc(-c2ccco2)c1 (stereo not shown) [compound 263] | 7.00 to 8.22 | – | 7.30 to 9.30
CC1=NN(c2ccc(C(F)(F)F)cc2)C(=O)C1C(=O)Nc1cccc(C(C)(F)F)c1 (stereo not shown) [compound 264] | 8.22 to 11.00 | – | 7.30 to 9.30
COc1ccc(N2N=C(C)C(C(=O)Nc3cccc(-c4ccco4)c3)C2=O)cc1 (stereo not shown) [compound 266] | 8.22 to 11.00 | – | 7.30 to 9.30
CC1=NN(c2cccc(C(F)(F)F)c2)C(=O)C1C(=O)Nc1cccc(C(C)(F)F)c1 (stereo not shown) [compound 271] | 8.22 to 11.00 | – | 7.30 to 9.30
CC1=NN(c2cccc(-c3ncco3)c2)C(=O)C1C(=O)Nc1cccc(-c2ncc[nH]2)c1 (stereo not shown) [compound 279] | 7.00 to 8.22 | – | < 7.00
COc1ccc(N2N=C(C)C(C(=O)Nc3cccc(C(C)(F)F)c3)C2=O)cc1OC (stereo not shown) [compound 287] | 8.22 to 11.00 | – | 7.30 to 9.30
CC1=NN(c2cccc(-c3nccn3C)c2)C(=O)C1C(=O)Nc1cccc(C(C)(F)F)c1 (stereo not shown) [compound 289] | 8.22 to 11.00 | – | 7.30 to 9.30
CC1=NN(c2ccc(OC(F)(F)F)c(-c3ncco3)c2)C(=O)C1C(=O)Nc1cccc(C(C)(F)F)c1 (stereo not shown) [compound 291] | 8.22 to 11.00 | – | 7.30 to 9.30
CC1=NN(c2ccc(OC(F)(F)F)c(-c3ncco3)c2)C(=O)C1C(=O)Nc1cccc(-c2ccco2)c1 (stereo not shown) [compound 292] | 8.22 to 11.00 | – | 7.30 to 9.30
CC1=NN(c2ccc(-c3nnn[nH]3)cc2)C(=O)C1C(=O)Nc1cccc(C(C)(F)F)c1 (stereo not shown) [compound 297] | 8.22 to 11.00 | – | < 7.00
COc1ccc(N2N=C(C)C(C(=O)Nc3cccc(C(C)(F)F)c3)C2=O)cc1-c1nccn1C (stereo not shown) [compound 300] | 8.22 to 11.00 | – | 7.30 to 9.30
COc1ccc(N2N=C(C)C(C(=O)Nc3cccc(C(C)(F)F)c3)C2=O)cc1-c1ncco1 (stereo not shown) [compound 301] | 8.22 to 11.00 | – | 7.30 to 9.30
COc1ccc(N2N=C(C)C(C(=O)Nc3cccc(C(C)(F)F)c3)C2=O)cc1C (stereo not shown) [compound 303] | 8.22 to 11.00 | – | 7.30 to 9.30
COc1ccc(N2N=C(C)C(C(=O)Nc3cccc(C(C)(F)F)c3)C2=O)cc1-c1cccnc1 (stereo not shown) [compound 320] | – | – | 7.30 to 9.30
COc1ccc(N2N=C(C)C(C(=O)Nc3cccc(C(C)(F)F)c3)C2=O)cc1-c1cncnc1 (stereo not shown) [compound 323] | – | – | 7.30 to 9.30
CC1=NN(c2ccc(OC(C)(C)C)cc2)C(=O)C1C(=O)Nc1cccc(C(C)(F)F)c1 (stereo not shown) [compound 324] | – | – | 7.30 to 9.30
CC1=NN(c2ccc(OC3CCC3)cc2)C(=O)C1C(=O)Nc1cccc(C(C)(F)F)c1 (stereo not shown) [compound 325] | – | – | 7.30 to 9.30
CC1=NN(c2ccc(OC3COC3)cc2)C(=O)C1C(=O)Nc1cccc(C(C)(F)F)c1 (stereo not shown) [compound 326] | – | – | 7.30 to 9.30
CC1=NN(c2ccc(OC(F)F)c(-c3ccccn3)c2)C(=O)C1C(=O)Nc1cccc(C(C)(F)F)c1 (stereo not shown) [compound 327] | – | – | 7.30 to 9.30

The remaining lines, values ahead:

pIC50 (ACSS2 [1]) | pIC50 (ACSS2 [2]) | pIC50 (ACSS2 [3]) | SMILES
8.22 to 11.00 | – | < 7.00 | CC(=O)Cc1cccc(NC(=O)C2C(=O)N(c3ccccc3)N=C2C)c1 (stereo not shown) [compound 145, 3-methyl-5-oxo-N-(3-(2-oxopropyl)phenyl)-1-phenyl-4,5-dihydro-1H-pyrazole-4-carboxamide]
8.22 to 11.00 | – | 7.00 to 7.30 | CC1=NN(c2cccc(-c3ncco3)c2)C(=O)C1C(=O)Nc1cccc(-c2cnccn2)c1 (stereo not shown) [compound 227]
8.22 to 11.00 | – | 7.30 to 9.30 | CC1=NN(c2cccc(-c3ncco3)c2)C(=O)C1C(=O)Nc1cccc(-c2ccco2)c1 (stereo not shown) [compound 228]
8.22 to 11.00 | – | < 7.00 | CC1=NN(c2cccc(-c3ncc(C)o3)c2)C(=O)C1C(=O)Nc1cccc(C(C)(F)F)c1 (stereo not shown) [compound 229]
8.22 to 11.00 | – | 7.30 to 9.30 | CC1=NN(c2cccc(-c3ncco3)c2)C(=O)C1C(=O)Nc1cccc(C(C)(F)F)c1 (stereo not shown) [compound 230]
8.22 to 11.00 | – | 7.30 to 9.30 | CC1=NN(c2cccc(C(=O)OC(C)C)c2)C(=O)C1C(=O)Nc1cccc(C(C)(F)F)c1 (stereo not shown) [compound 236]
8.22 to 11.00 | – | 7.00 to 7.30 | COc1ccc(N2N=C(C)C(C(=O)Nc3cccc(-c4cnccn4)c3)C2=O)cc1 (stereo not shown) [compound 241]
7.00 to 8.22 | – | < 7.00 | COc1ccc(N2N=C(C)C(C(=O)Nc3cccc(-c4ncc[nH]4)c3)C2=O)cn1 (stereo not shown) [compound 244]
8.22 to 11.00 | – | 7.30 to 9.30 | COc1cccc(N2N=C(C)C(C(=O)Nc3cccc(-c4ccco4)c3)C2=O)c1 (stereo not shown) [compound 247]
8.22 to 11.00 | – | 7.30 to 9.30 | COc1cccc(N2N=C(C)C(C(=O)Nc3cccc(-c4cnccn4)c3)C2=O)c1 (stereo not shown) [compound 249]
7.00 to 8.22 | – | < 7.00 | COc1ccc(N2N=C(C)C(C(=O)Nc3cccc(-c4ncc[nH]4)c3)C2=O)cc1 (stereo not shown) [compound 255]
8.22 to 11.00 | – | < 7.00 | CC1=NN(c2cccc(C(=O)O)c2)C(=O)C1C(=O)Nc1cccc(C(C)(F)F)c1 (stereo not shown) [compound 258]
7.00 to 8.22 | – | < 7.00 | COC(=O)c1cccc(N2N=C(C)C(C(=O)Nc3cccc(-c4ncco4)c3)C2=O)c1 (stereo not shown) [compound 259]
8.22 to 11.00 | – | 7.30 to 9.30 | COC(=O)c1cccc(N2N=C(C)C(C(=O)Nc3cccc(-c4ccco4)c3)C2=O)c1 (stereo not shown) [compound 269]
8.22 to 11.00 | – | 7.30 to 9.30 | CC1=NN(c2cccc(-c3nnc(C)o3)c2)C(=O)C1C(=O)Nc1cccc(C(C)(F)F)c1 (stereo not shown) [compound 280]
8.22 to 11.00 | – | 7.30 to 9.30 | [2H]C([2H])([2H])Oc1ccc(N2N=C(C)C(C(=O)Nc3cccc(C(C)(F)F)c3)C2=O)cc1 (stereo not shown) [compound 286]
8.22 to 11.00 | – | 7.30 to 9.30 | CC1=NN(c2ccc(OC(F)F)cc2)C(=O)C1C(=O)Nc1cccc(C(C)(F)F)c1 (stereo not shown) [compound 298]
8.22 to 11.00 | – | 7.30 to 9.30 | COc1ccc(N2N=C(C)C(C(=O)Nc3cccc(C(C)(F)F)c3)C2=O)nc1 (stereo not shown) [compound 304]
– | – | 7.30 to 9.30 | CCC(C)Oc1ccc(N2N=C(C)C(C(=O)Nc3cccc(C(C)(F)F)c3)C2=O)cc1 (stereo not shown) [compound 321]
– | – | 7.30 to 9.30 | CC1=NN(c2ccc(OC3CCCCC3)cc2)C(=O)C1C(=O)Nc1cccc(C(C)(F)F)c1 (stereo not shown) [compound 322]
– | – | 7.30 to 9.30 | CC1=NN(c2ccc(OC(F)F)c(-c3cnccn3)c2)C(=O)C1C(=O)Nc1cccc(C(C)(F)F)c1 (stereo not shown) [compound 328]
– | – | 7.30 to 9.30 | CCC(F)(F)c1cccc(NC(=O)C2C(=O)N(c3ccc(OC)cc3)N=C2C)c1 (stereo not shown) [compound 330]
– | – | 7.30 to 9.30 | COc1ccc(N2N=C(C)C(C(=O)Nc3cccc(C(C)(F)F)c3)C2=O)cc1-c1ccccn1 (stereo not shown) [compound 331]
– | – | 7.30 to 9.30 | COc1ccc(N2N=C(C)C(C(=O)Nc3cccc(C(C)(F)F)c3)C2=O)cc1-c1cnccn1 (stereo not shown) [compound 332]
